Test results from US10392404B2, “Compounds and compositions as kinase inhibitors” (NOVARTIS AG, priority 2014, dated 2019).

Experiments:
b-Raf (V600E) = target: T1, b-Raf (V600E) (Homo sapiens, UniProt P15056, V600E); assay: In vitro Raf activity determination (Alpha Screen, biotinylated kinase-dead MEK1 substrate), B-Raf; format: biochemical; details: b-Raf (V600E) approximately 4 pM; ATP 10 μM; pre-incubation 60 minutes; reaction 3 hours at room temperature
T1 construct: made in house
Method: (§1) Full length MEK1 with an inactivating K97R ATP binding site mutation is utilized as a RAF substrate. The MEK1 cDNA was subcloned with an N-terminal (his)6 tag into a vector for E. Coli expression. The MEK1 substrate was purified from E. Coli lysate by nickel affinity chromatography followed by anion exchange. The final MEK1 preparation was biotinylated (Pierce EZ-Link Sulfo-NHS-LC-Biotin) and concentrated.
(§2) Assay Materials: Assay buffer is 50 mM Tris, pH 7.5, 15 mM MgCl2, 0.01% Bovine Serum Albumin (BSA) and 1 mM dithiothreitol (DTT); Stop buffer is 60 mM ethylenediaminetetraacetic acid (EDTA) and 0.01% Tween® 20; b-Raf (V600E), active; biotinylated Mek, kinase dead; Alpha Screen detection kit (available from PerkinElmer™, #6760617R); Anti phospho-MEK1/2 (available from Cell Signaling Technology, Inc. #9121); 384 well low volume assay plates (White Greiner® plates).
(§3) Assay conditions: b-Raf (V600E) approximately 4 pM; c-Raf approximately 4 nM; biotinylated Mek, kinase dead approximately 10 nM; ATP 10 μM for BRAF (V600E) and 1 μM for CRAF; Pre-incubation time with compounds 60 minutes at room temperature; Reaction time 1 or 3 hours at room temperature.
(§4) Assay protocol: Raf and biotinylated Mek (kinase dead) were combined at 2× final concentrations in assay buffer (50 mM Tris, pH 7.5, 15 mM MgCl2, 0.01% BSA and 1 mM DTT) and dispensed […] per well in assay plates (Greiner white 384 well assay plates #781207) containing […] of 40× of a Raf kinase inhibitor test compound diluted in 100% DMSO. The plate was incubated for 60 minutes at room temperature. The Raf kinase activity reaction was started by the addition of […] per well of 2×ATP diluted in assay buffer. After 3 hours (b-Raf(V600E)) or 1 hour (c-Raf). The reactions were stopped and the phosphorylated product was measured using a rabbit anti-p-MEK (Cell Signaling, #9121) antibody and the Alpha Screen IgG (ProteinA) detection Kit (PerkinElmer #6760617R), by the addition of […] to the well of a mixture of the antibody (1:2000 dilution) and detection beads (1:2000 dilution of both beads) in Stop/bead buffer (25 mM EDTA, 50 mM Tris, pH 7.5, 0.01% Tween20). The additions were carried out under dark conditions to protect the detection beads from light. A lid was placed on top of the plate and incubated for 1 hour at room temperature, after which the luminescence was read on a PerkinElmer Envision instrument. The concentration of each compound for 50% inhibition (IC50) was calculated by non-linear regression using XL Fit data analysis software.

C-RAF = target: T2, C-RAF (Homo sapiens, UniProt P04049, Y340E/Y341E); assay: In vitro Raf activity determination (Alpha Screen, biotinylated kinase-dead MEK1 substrate), C-Raf; format: biochemical; details: c-Raf approximately 4 nM; ATP 1 μM; pre-incubation 60 minutes; reaction 1 hour at room temperature
T2 construct: His tag (implied by nickel chromatography) (cleaved yes); StrepII tag (cleaved yes); made in house; host or cells: Sf9 insect cells (baculovirus), CRAF and h14-3-3 zeta co-expressed; MEK1 substrate from E. coli
Description: CRAF cDNA was subcloned as full length protein, with Y340E and Y341E activating mutations, into a baculovirus expression vector for Sf9 insect cell expression. h14-3-3 zeta cDNA was subcloned into a baculovirus expression vector for SF9 insect cell expression. Sf9 cells co-expressing both proteins were lysed and subjected to immobilized nickel chromatography and eluted with Imidazole. A second column (StrepII binding column) was used and eluted with desthiobiotin. Protein Tags were removed using Prescission enzyme and the protein was further purified using a flowthrough step to remove tags.
C-Raf TR refers to a truncated C-Raf protein, a Δ1-324 deletion mutant. C-Raf FL refers to the full-length C-Raf protein.
as §1, §2, §3, §4

T1 sequence (P15056 whole entry V600E): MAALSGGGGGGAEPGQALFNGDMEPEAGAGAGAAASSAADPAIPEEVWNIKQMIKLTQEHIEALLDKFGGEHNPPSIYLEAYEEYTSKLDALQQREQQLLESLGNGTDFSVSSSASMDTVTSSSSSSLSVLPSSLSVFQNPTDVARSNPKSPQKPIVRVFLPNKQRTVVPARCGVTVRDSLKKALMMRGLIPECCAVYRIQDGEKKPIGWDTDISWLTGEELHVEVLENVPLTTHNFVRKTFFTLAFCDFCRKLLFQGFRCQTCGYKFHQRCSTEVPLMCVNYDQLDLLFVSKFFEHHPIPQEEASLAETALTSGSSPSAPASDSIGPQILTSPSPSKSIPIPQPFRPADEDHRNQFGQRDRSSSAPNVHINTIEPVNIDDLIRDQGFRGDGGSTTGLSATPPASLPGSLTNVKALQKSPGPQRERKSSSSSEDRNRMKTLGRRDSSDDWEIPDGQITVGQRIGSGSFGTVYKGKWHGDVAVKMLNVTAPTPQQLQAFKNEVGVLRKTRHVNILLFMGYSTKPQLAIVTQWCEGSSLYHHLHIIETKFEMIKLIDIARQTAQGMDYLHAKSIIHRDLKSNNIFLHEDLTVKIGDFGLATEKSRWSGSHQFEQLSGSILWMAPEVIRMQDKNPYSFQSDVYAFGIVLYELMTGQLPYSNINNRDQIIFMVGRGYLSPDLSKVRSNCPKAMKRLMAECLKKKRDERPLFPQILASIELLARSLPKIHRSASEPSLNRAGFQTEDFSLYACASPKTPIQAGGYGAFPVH
T2 sequence (P04049 whole entry Y340E/Y341E): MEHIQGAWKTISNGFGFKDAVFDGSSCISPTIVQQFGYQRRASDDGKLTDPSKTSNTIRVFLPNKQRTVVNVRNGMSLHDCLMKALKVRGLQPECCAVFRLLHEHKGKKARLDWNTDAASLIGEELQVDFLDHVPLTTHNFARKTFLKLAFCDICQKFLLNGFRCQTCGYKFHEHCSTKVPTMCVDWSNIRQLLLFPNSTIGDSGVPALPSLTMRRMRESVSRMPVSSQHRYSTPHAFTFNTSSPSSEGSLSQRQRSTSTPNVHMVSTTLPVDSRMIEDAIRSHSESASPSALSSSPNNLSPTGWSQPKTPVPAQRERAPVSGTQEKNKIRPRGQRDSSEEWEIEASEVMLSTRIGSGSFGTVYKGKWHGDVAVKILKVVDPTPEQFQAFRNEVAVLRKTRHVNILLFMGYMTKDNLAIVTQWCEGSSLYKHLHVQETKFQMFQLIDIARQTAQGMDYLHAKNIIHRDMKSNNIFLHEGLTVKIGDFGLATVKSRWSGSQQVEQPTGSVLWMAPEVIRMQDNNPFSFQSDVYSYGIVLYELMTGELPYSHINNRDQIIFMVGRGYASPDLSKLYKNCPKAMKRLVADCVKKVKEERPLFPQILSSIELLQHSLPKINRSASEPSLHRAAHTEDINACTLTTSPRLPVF
T2 sequence (P63104 whole entry partner): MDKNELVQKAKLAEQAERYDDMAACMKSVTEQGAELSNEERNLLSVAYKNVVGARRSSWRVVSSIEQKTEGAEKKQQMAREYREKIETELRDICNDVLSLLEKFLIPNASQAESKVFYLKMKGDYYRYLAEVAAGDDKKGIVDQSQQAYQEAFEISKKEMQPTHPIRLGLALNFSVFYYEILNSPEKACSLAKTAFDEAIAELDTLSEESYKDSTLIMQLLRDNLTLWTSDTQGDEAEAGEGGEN

SMILES | IC50 (b-Raf (V600E)) [nM] | IC50 (C-RAF) [nM]
Cc1ccc(NC(=O)c2ccnc(C(F)(F)F)c2)cc1-c1cnc(N(C)C)c(C#N)c1 [Example 25, N-(3-(5-cyano-6-(dimethylamino)pyridin-3-yl)-4-methylphenyl)-2-(trifluoromethyl) isonicotinamide] | 0.9 | 0.127
Cc1ncc(NC(=O)c2ccnc(C(C)(C)C#N)c2)cc1-c1cnc(N(C)C)c(C#N)c1 [Example 26, N-(5′-cyano-6′-(dimethylamino)-2-methyl-[3,3′-bipyridin]-5-yl)-2-(2-cyanopropan-2-yl)isonicotinamide] | 15 | 1.78
Cc1ccc(C(=O)Nc2cccc(C(F)(F)F)c2)cc1-c1cncc(C#N)c1 [Example 27, 3-(5-cyanopyridin-3-yl)-4-methyl-N-(3-(trifluoromethyl)phenyl)benzamide] | 21.1 | 1.65
Cc1ncc(NC(=O)c2ccnc(C(C)(C)C#N)c2)cc1-c1cnc(NC(C)C)c(C#N)c1 [Example 28, N-(5′-cyano-6′-(isopropylamino)-2-methyl-[3,3′-bipyridin]-5-yl)-2-(2-cyanopropan-2-yl)isonicotinamide] | 9.82 | 2.55
Cc1ccc(NC(=O)c2ccnc(C(C)(C)C#N)c2)cc1-c1cnc(N2CC(C)(O)C2)c(C#N)c1 [Example 29, N-(3-(5-cyano-6-(3-hydroxy-3-methylazetidin-1-yl)pyridin-3-yl)-4-methylphenyl)-2-(2-cyanopropan-2-yl)isonicotinamide] | 4.05 | 0.671
Cc1ncc(NC(=O)c2ccnc(C(C)(C)C#N)c2)cc1-c1cnc(N2CC(C)(O)C2)c(C#N)c1 [Example 30, N-(5′-cyano-6′-(3-hydroxy-3-methylazetidin-1-yl)-2-methyl-[3,3′-bipyridin]-5-yl)-2-(2-cyanopropan-2-yl) isonicotinamide] | 28.8 | 3.69
Cc1ccc(NC(=O)c2ccnc(C(C)(C)C#N)c2)cc1-c1cnc(Cl)c(C#N)c1 [Example 32, N-(3-(6-chloro-5-cyanopyridin-3-yl)-4-methylphenyl)-2-(2-cyanopropan-2-yl)isonicotinamide] | 5.73 | 1.03
Cc1ccc(NC(=O)c2cccc(C(F)(F)F)c2)cc1-c1cnc(Cl)c(C#N)c1 [Example 33, N-(3-(6-chloro-5-cyanopyridin-3-yl)-4-methylphenyl)-3-(trifluoromethyl)benzamide] | 3.4 | 0.432
Cc1ccc(NC(=O)c2cccc(C(F)(F)F)c2)cc1-c1cncc(C#N)c1 [Example 34, N-(3-(5-cyanopyridin-3-yl)-4-methylphenyl)-3-(trifluoromethyl) benzamide] | 3.9 | 0.616
Cc1ccc(NC(=O)c2ccnc(C(C)(C)C#N)c2)cc1-c1cncc(C#N)c1 [Example 35, 2-(2-cyanopropan-2-yl)-N-(3-(5-cyanopyridin-3-yl)-4-methylphenyl) isonicotinamide] | 11.1 | 1.95
COc1ncc(-c2cc(NC(=O)c3ccnc(C(C)(C)C#N)c3)ccc2C)cc1C#N [Example 36, N-(3-(5-cyano-6-methoxypyridin-3-yl)-4-methylphenyl)-2-(2-cyanopropan-2-yl)isonicotinamide] | 2.76 | 0.479
COc1ncc(-c2cc(NC(=O)c3cccc(C(F)(F)F)c3)ccc2C)cc1C#N [Example 37, N-(3-(5-cyano-6-methoxypyridin-3-yl)-4-methylphenyl)-3-(trifluoromethyl) benzamide] | 1.3 | 0.16
Cc1ncc(NC(=O)c2ccnc(C(C)(C)C#N)c2)cc1-c1cnc(N)c(C#N)c1 [Example 38, N-(6′-amino-5′-cyano-2-methyl-[3,3′-bipyridin]-5-yl)-2-(2-cyanopropan-2-yl)isonicotinamide] | 16.4 | 1.81
CCCNc1ncc(-c2cc(NC(=O)c3cccc(C(F)(F)F)c3)ccc2C)cc1C#N [Example 39, N-(3-(5-cyano-6-(propylamino)pyridin-3-yl)-4-methylphenyl)-3-(trifluoromethyl) benzamide] | 4.02 | 0.429
CCCNc1ncc(-c2cc(NC(=O)c3ccnc(C(F)(F)F)c3)ccc2C)cc1C#N [Example 40, N-(3-(5-cyano-6-(propylamino)pyridin-3-yl)-4-methylphenyl)-2-(trifluoromethyl) isonicotinamide] | 1.57 | 0.233
Cc1ccc(NC(=O)c2cccc(C(F)(F)F)c2)cc1-c1cc(C#N)c(N)nc1C [Example 41, N-(3-(6-amino-5-cyano-2-methylpyridin-3-yl)-4-methylphenyl)-3-(trifluoromethyl) benzamide] | 16.4 | 1.08
Cc1ccc(NC(=O)c2ccnc(C(F)(F)F)c2)cc1-c1cc(C#N)c(N)nc1C [Example 42, N-(3-(6-amino-5-cyano-2-methylpyridin-3-yl)-4-methylphenyl)-2-(trifluoromethyl) isonicotinamide] | 10.2 | 0.672
Cc1ncc(NC(=O)c2cccc(C(F)(F)F)c2)cc1-c1cnc(S(C)(=O)=O)c(C#N)c1 [Example 44, N-(5′-cyano-2-methyl-6′-(methylsulfonyl)-[3,3′-bipyridin]-5-yl)-3-(trifluoromethyl) benzamide] | 17.3 | 2.8
Cc1ncc(NC(=O)c2ccnc(C(F)(F)F)c2)cc1-c1cnc(S(C)(=O)=O)c(C#N)c1 [Example 45, N-(5′-cyano-2-methyl-6′-(methylsulfonyl)-[3,3′-bipyridin]-5-yl)-2-(trifluoromethyl) isonicotinamide] | 5.95 | 1.13
Cc1ccc(NC(=O)c2ccnc(C(F)(F)F)c2)cc1-c1cnc(S(C)(=O)=O)c(C#N)c1 [Example 46, N-(3-(5-cyano-6-(methylsulfonyl)pyridin-3-yl)-4-methylphenyl)-2-(trifluoromethyl) isonicotinamide] | 10.5 | 2.11
Cc1ncc(NC(=O)c2ccnc(C(F)(F)F)c2)cc1-c1cnc(-n2ccccc2=O)c(C#N)c1 [Example 51, N-(3′-cyano-2″- methyl-2-oxo-2H-[1,2′:5′,3″- terpyridin]-5″-yl)-2-(trifluoromethyl) isonicotinamide] | 447 | 101
Cc1ncc(NC(=O)c2ccnc(C(F)(F)F)c2)cc1-c1cnc(Oc2ccccn2)c(C#N)c1 [Example 52, N-(5′-cyano-2-methyl-6′-(pyridin-2-yloxy)-[3,3′-bipyridin]-5-yl)-2-(trifluoromethyl) isonicotinamide] | 27.2 | 9.28
Cc1ncc(NC(=O)c2ccnc(C(C)(C)C#N)c2)cc1-c1cnc(-n2ccccc2=O)c(C#N)c1 [Example 53, N-(3′-cyano-2″- methyl-2-oxo-2H-[1,2′:5′,3″- terpyridin]-5″-yl)-2 (2-cyanopropan-2-yl)isonicotinamide] | 285 | 64
Cc1ncc(NC(=O)c2ccnc(C(C)(C)C#N)c2)cc1-c1cnc(Oc2ccccn2)c(C#N)c1 [Example 54, N-(5′-cyano-2-methyl-6′-(pyridin-2-yloxy)-[3,3′-bipyridin]-5-yl)-2-(2-cyanopropan-2-yl)isonicotinamide] | 34.7 | 7.88
